How the values were obtained:
[1] = tested on: Beet Armyworm (Spodoptera exigua); test: Insecticidal diet-surface test for beet armyworm; type: in vivo; settings: second-instar beet armyworm, 50 ug/cm2 on diet surface, 5 days after treatment, dead insects of 8
Procedure: (§1) The compounds identified in Table 1 were prepared using the procedures illustrated in the foregoing examples, and the compounds were tested against beet armyworm and corn earworm as follows:
(§2) Insecticidal Test for Corn Earworm (Helicoverpa zea) and Beet Armyworm (Spodoptera exigua).
(§3) To prepare test solution, the test compound was formulated at 2000 ppm solution as 4 mg/2 mL of 9 acetone:1 tap water. 50 μL of the 2000 ppm (equivalent to 50 ug/cm^2 dose on diet surface area) test solution was pipetted upon the surface of 1 mL of lepidopteran diet (Southland Multi-Species Lepidopteran Diet) contained in each of eight wells per insect species (one well=1 replication). A second-instar corn earworm and beet armyworm was placed upon the treated diet in each well once the solvent had air-dried. Trays containing the treated diet and larvae were covered and then held in a growth chamber at 25° C., 50-55% RH, and 16 hr light:8 hr dark for 5 days. Observation were conducted 5 days after treatment and infestation. The number of dead insects of 8 per species per treatment was then determined and the results are given in Table 1 as percent control at a dose of […].
(§4) Keys to the table: Mass spectral data were obtained using liquid chromatography mass spectroscopy (LC-MS). The masses are detected using electrospray ionization (ESI) and reported as Mol Ion (M+H, M−H); AVG LAPHEG 50 refers to activity against beet army worm (Spodoptera exigua) as defined above; AVG HELIZE 50 refers to activity against corn ear worm (Helicoverpa zea) as described above.

[2] = tested on: Corn Earworm (Helicoverpa zea); test: Insecticidal diet-surface test for corn earworm; type: in vivo; settings: second-instar corn earworm, 50 ug/cm2 on diet surface, 5 days after treatment, dead insects of 8
Procedure: as §1, §2, §3, §4

SMILES: FC(F)(F)Oc1ccc(/C=N/Nc2cc(Nc3cc(Cl)cc(C(F)(F)F)c3)nc(Cl)n2)cc1 [Compound 83]
- LAPHEG 50 (ug/cm2), percent control [1]: 100%
- HELIZE 50 (ug/cm2), percent control [2]: 100%

SMILES: FC(F)C(F)(F)Oc1ccc(/C=N/Nc2cc(Nc3cc(Cl)cc(C(F)(F)F)c3)nc(Cl)n2)cc1 [Compound 84]
- LAPHEG 50 (ug/cm2), percent control [1]: 100%
- HELIZE 50 (ug/cm2), percent control [2]: 100%

SMILES: Fc1ccc(Nc2cc(NN=Cc3ccc(OC(F)(F)F)cc3)ncn2)cc1C(F)(F)F [Compound 85]
- LAPHEG 50 (ug/cm2), percent control [1]: 100%
- HELIZE 50 (ug/cm2), percent control [2]: 100%

SMILES: Fc1ccc(Nc2cc(N/N=C/c3ccc(C(F)(F)F)nc3)ncn2)cc1C(F)(F)F [Compound 86]
- LAPHEG 50 (ug/cm2), percent control [1]: 100%
- HELIZE 50 (ug/cm2), percent control [2]: 100%

Reference: patent US8598182B2, “Insecticidal pyrimidinyl aryl hyrdrazones” (Dow AgroSciences, LLC., priority 2007, dated 2013)
